This assay concerns mouse T lymphocytes. Description: T-cell proliferation assay (ionomycin plus PMA induced T-cell stimulation, tritiated thymidine uptake). It counts as cell-based, C57B1/6 mice. As for the experimental part:
The principle of this assay is to measure the proliferation of mouse T lymphocytes stimulated with the combination of ionomycin plus PMA. A positive sample in this assay will inhibit T-cell proliferation, as indicated by reduced tritiated thymidine uptake.
Purified demethimmunomycin, as prepared by HPLC above, was dissolved in absolute ethanol at 1 mg/ml.
Spleens from C57B1/6 mice were taken under sterile conditions and gently dissociated in ice-cold RPMI 1640 culture medium (GIBCO, Grand Island, N.Y.) supplemented with 10% heat-inactivated fetal calf serum (GIBCO). Cells were pelleted by centrifugation at 1500 rpm for 8 minutes. Contaminating red cells were removed by treating the pellet with ammonium chloride lysing buffer (GIBCO) for 2 minutes at 4°C. Cold medium was added and cells were again centrifuged at 1500 rpm for 8 minutes. T lymphocytes were then isolated by separation of the cell suspension on nylon wool columns as follows: Nylon wool columns were prepared by packing approximately 4 grams of washed and dried nylon wool into 20 ml plastic syringes. The columns were sterilized by autoclaving at 250°F [120°C] for 30 minutes. Nylon wool columns were wetted with warm (37°C) culture medium and rinsed with the same medium. Washed spleen cells resuspended in warm medium were slowly applied to the nylon wool. The columns were then incubated in an upright position at 37°C for 1 hour. Non-adherent T lymphocytes were eluted from the columns with warm culture medium and the cell suspensions were spun as above.
Purified T lymphocytes were resuspended at 2.5 x 10⁵ cells/ml in complete culture medium composed of RPMI 1640 medium with 10% heat-inactivated fetal calf serum, […] glutamine, 1 mM sodium pyruvate, 2 x 10⁻⁵ M 2-mercaptoethanol and 50 »g/ml gentamycin. Ionomycin was added at 250 ng/ml and PMA at 10 ng/ml. The cell suspension was immediately distributed into 96 well flat-bottom microculture plates (Costar)(registered trade mark) at 200 »l/well. The control, being the medium without test drug, and various below-indicated dilutions of the sample (above-described purified demethimmunomycin) to be tested were then added in triplicate wells at 20 »l/well. L-679,934 was used as a standard. The culture plates were then incubated at 37°C in a humidified atmosphere of 5% CO₂-95% air for 44 hours. The proliferation of T lymphocytes was assessed by measurement of tritiated thymidine incorporation. After 44 hours of culturing, the cells were pulse-labelled with 2 »Ci/well of tritiated thymidine (NEN, Cambridge, MA). After another 4 hours of incubation, cultures were harvested on glass fiber filters using a multiple sample harvester. Radioactivity of filter discs corresponding to individual wells was measured by standard liquid scintillation counting methods (Betacounter). Mean counts per minute of replicate wells were calculated and the results expressed as percent inhibition of tritiated thymidine uptake (proliferation) as follows: [formula]
• 1. Mouse T cell cultures were pulsed with ³H-thymidine for 4 hours prior to harvesting at 48 hours. • 2. […] IC₅₀ = 1.4 ng/ml = 1.81 nM, for demethimmunomycin, (L-638,742), and generally in the range of 1.6 to 1.9 x 10⁻⁹ molar. • 4. Inhibition of T-cell proliferation by demethimmunomycin was reversed by the addition of 50»/ml of IL-2 (recombinant IL-2) at the initiation of culture.

The mark [1] stands for this setting: Mus musculus, T-lymphocyte, 48 h.

pIC50: −log10 of the molar value. Like-named read-outs stand apart in the source and are kept apart here.

The term inhibition denotes how much of the control response was suppressed.

For `CC[C@@H]1/C=C(\C)C[C@H](C)C[C@H](OC)[C@H]2O[C@@](O)(C(=O)C(=O)N3CCCC[C@H]3C(=O)O[C@H](/C(C)=C/[C@@H]3CC[C@@H](O)[C@H](O)C3)[C@H](C)[C@@H](O)CC1=O)[C@H](C)C[C@@H]2OC` [demethimmunomycin, 31-desmethoxy-31-hydroxy-L-683,590], under setting [1], the inhibition at 0.0006 µg/mL came to 0%, the inhibition at 0.0009 µg/mL was 9%, the inhibition at 0.0013 µg/mL worked out at 38.2% and the inhibition at 0.0019 µg/mL was 72.1%. Under setting [1], the inhibition at 0.0029 µg/mL is 86.3%, the inhibition at 0.0044 µg/mL was determined as 91.9% and the inhibition at 0.0066 µg/mL worked out at 97.9%. Also, for the setting “Mus musculus, T-lymphocyte, read-out: IC₅₀, inhibition of T-cell proliferation”, the IC50 came to 1.4 ng/mL. Moreover, the pIC50 (Mus musculus, T-lymphocyte, read-out: IC₅₀, inhibition of T-cell proliferation, range generally found) was 8.72 to 8.80. In addition, the pIC50 (Mus musculus, T-lymphocyte, read-out: IC₅₀, inhibition of T-cell proliferation, same value as 1.4 ng/ml, given in molar terms) was 8.74. Besides, the “Inhibition of T-cell proliferation on addition of IL-2” value (addition of recombinant IL-2 at the initiation of culture) is recorded as “reversed”.

Source of the values: patent EP0349061B1, “Immunosuppressant agent” (Merck & Co., Inc., priority 1988, dated 1990).
